# Experimental data as given in US9821024B2, “Immunomodulatory compositions” (Sigmoid Pharma Limited, priority 2010, dated 2017).
# Test system: NFκB
# Details: HeLa cells; FIG. 29
structure (smiles),measurement,value
NNc1nncc2ccccc12 [Hydralazine],Concentration of maximal NFκB activation,10 µg/mL
